The values below come from US20250188098A1, “CARBORANE COMPOUNDS AND METHODS OF USE THEREOF” (Ohio State Innovation Foundation, priority 2023, published 2025).

In data set [1] the target is T1, ERβ (Homo sapiens, UniProt Q92731). The following applies: cited from earlier work.
Target sequence in this assay (Q92731 whole entry, species assumed): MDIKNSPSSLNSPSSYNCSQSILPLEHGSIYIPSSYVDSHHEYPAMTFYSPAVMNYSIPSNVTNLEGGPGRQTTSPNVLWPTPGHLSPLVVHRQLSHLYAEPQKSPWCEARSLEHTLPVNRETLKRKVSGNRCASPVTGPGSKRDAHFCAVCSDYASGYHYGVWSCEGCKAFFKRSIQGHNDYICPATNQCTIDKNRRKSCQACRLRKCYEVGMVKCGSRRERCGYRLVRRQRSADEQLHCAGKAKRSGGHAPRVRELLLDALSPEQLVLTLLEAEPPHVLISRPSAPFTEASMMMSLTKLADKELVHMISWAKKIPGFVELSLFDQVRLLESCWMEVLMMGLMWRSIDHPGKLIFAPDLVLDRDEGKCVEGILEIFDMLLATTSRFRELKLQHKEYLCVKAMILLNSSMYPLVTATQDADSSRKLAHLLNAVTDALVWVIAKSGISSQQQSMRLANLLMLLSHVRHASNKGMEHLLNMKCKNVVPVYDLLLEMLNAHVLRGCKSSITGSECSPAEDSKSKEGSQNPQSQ
For data set [2] the following is noted: mouse; cited from earlier work.
The nature of data set [3]: Mouse IV pharmacokinetic study. Format: in vivo.
The target of data set [4] is T1, ERβ. Put plainly: Estrogen receptor radioligand binding assay, hERβ. Also on record: expressed in transfected cells. As to the method:
Estrogen Receptor Radio Ligand Binding Assays. […] Briefly, ERα and ERβ were obtained from recombinant insect Sf9 cells overexpressing either human receptor. [^3H] Estradiol (0.5 nM) and Diethylstilbestrol (1 μM) were used as radio-ligand and ER binding ligand positive controls, respectively. To determine the IC50, each analog was tested at several concentrations depending on the receptor being challenged. The test concentrations ranged from 1 pM-10 μM for ERβ, and 10 pM-100 μM for ERα and were performed in duplicate. The IC50 values were determined by non-linear least squares regression analysis using MathIQ™ (ID Business Solutions Ltd., UK). […] The Hill coefficients of the competition curves were calculated using MathIQ™.
Target sequence in this assay (Q92731 whole entry): as the sequence (Q92731 whole entry, species assumed) above

The target in data set [5] is T2, hERα (Homo sapiens, UniProt P03372).
T2 sequence (P03372 1-595): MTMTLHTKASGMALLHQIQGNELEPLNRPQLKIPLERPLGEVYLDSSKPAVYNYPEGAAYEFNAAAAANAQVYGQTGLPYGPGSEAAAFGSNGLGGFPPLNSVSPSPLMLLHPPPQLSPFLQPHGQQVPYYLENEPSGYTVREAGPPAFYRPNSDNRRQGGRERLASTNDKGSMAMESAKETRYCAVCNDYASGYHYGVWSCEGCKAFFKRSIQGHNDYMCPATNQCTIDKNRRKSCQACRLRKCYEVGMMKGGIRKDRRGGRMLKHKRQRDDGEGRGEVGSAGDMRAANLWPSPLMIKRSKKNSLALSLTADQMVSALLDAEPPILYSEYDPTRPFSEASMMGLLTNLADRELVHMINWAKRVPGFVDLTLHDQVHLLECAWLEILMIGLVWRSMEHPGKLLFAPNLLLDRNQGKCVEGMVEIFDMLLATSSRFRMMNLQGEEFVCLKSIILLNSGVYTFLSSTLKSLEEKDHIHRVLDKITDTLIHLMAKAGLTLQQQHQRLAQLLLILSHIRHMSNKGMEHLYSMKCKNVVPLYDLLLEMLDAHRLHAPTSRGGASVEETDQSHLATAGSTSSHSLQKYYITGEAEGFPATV
Put plainly: Predicted hERα activation at uterotrophic dose (simulated Cmax / hERα EC50). Conditions: values >1: peak plasma concentration exceeds concentration to activate hERα.

Another data set addresses T3, mouse ERα (Mus musculus, UniProt P19785).
T3 sequence (P19785 1-599): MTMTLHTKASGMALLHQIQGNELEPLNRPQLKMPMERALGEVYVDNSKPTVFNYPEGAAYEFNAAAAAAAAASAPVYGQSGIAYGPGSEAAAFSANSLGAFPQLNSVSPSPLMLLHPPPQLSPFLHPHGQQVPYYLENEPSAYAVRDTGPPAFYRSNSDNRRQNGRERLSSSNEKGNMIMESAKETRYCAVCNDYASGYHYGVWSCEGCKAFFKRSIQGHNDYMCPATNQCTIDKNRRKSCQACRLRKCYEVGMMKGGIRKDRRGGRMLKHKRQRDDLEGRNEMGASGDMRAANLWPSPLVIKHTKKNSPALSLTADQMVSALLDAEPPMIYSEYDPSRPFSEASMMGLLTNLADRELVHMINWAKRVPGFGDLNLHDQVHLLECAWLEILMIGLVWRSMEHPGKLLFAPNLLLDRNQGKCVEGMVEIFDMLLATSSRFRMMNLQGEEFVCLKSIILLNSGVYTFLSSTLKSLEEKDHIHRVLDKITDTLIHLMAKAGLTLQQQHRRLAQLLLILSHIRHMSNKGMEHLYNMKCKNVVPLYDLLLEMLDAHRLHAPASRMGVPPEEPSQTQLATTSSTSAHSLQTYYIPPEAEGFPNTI
Put plainly: ER luciferase transcriptional activation assay in transfected HEK-293 cells, mERα. Conditions: read-out: mERα EC50, nM (95% CI); transactivation, HEK-293.

Data set [6] deals with T2, hERα. Put plainly: Estrogen receptor radioligand binding assay, hERα. The following applies: [3H]estradiol competition, recombinant human receptor from Sf9 cells.
Data set [7] is described as follows: Simulated pharmacokinetics at uterotrophic ED50 dose.
The next data set deals with T4, mERα (Mus musculus, UniProt P19785).
T4 sequence (P19785 1-599): T3 sequence (P19785 1-599)
Put plainly: Predicted mERα activation at uterotrophic dose (simulated Cmax / mERα EC50). The following applies: values >1: peak plasma concentration exceeds concentration to activate mouse ERα.

Data set [8] in a line: Mouse PO pharmacokinetic study. The following applies: absolute bioavailability, PO 10 mg/kg.
Data set [9] has as its target T1, ERβ. Put plainly: ER luciferase transcriptional activation assay in transfected HEK-293 cells, hERβ.
Target sequence in this assay (Q92731 whole entry): as the sequence (Q92731 whole entry, species assumed) above
The subject of data set [10] is estrogen-naïve female mice. Put plainly: Uterotrophic assay. The following applies: oral once daily for 4 days; dose giving 50% of the uterotrophic effect of estradiol.
Data set [11] addresses T2, hERα. Put plainly: ER luciferase transcriptional activation assay in transfected HEK-293 cells, hERα. Also on record: expressed in transfected cells; host or cells: HEK-293 (CRL-1573, ATCC), transient transfection with pcDNA3-hERα and pGL4.26-3×ERE. Format: cell-based. The following applies: transactivation.
A further data set has as its target mouse ERβ (Mus musculus, UniProt O08537). Description: ER luciferase transcriptional activation assay in transfected HEK-293 cells, mERβ.
[12] abbreviates: simulated at uterotrophic ED50 oral dose.

Like-named read-outs stand apart in the source and are kept apart here.

mouse ERβ, sequence (O08537 whole entry): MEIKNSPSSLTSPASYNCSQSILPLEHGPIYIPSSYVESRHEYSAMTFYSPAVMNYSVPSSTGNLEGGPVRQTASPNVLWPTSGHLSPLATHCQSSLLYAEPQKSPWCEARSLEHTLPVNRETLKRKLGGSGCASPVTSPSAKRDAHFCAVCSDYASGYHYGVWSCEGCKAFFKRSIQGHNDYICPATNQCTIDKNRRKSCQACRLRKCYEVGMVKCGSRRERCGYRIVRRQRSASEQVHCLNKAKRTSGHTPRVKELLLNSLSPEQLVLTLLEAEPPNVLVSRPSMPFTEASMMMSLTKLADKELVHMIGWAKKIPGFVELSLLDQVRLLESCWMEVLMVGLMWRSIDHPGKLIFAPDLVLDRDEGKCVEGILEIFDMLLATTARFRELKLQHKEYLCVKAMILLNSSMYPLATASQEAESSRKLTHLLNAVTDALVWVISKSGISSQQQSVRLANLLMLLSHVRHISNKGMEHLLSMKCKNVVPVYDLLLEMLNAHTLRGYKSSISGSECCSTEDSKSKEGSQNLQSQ

Take `CCN(CC)CCCC(C)NC(=O)c1ccc2c(c1)C(=O)c1ccccc1C2=O` (stereo not drawn) [CIDD-0149897]: the “selectivity over ERα” value on ERβ [1] was 40 fold. The EC50 – broadly, the concentration at which the effect is half-maximal – at ERβ [1] (read-out: ERβ potency EC50) is 234 nM. The “systemic clearance following an IV dose” value in data set [2] is 700 mL/h.

As to “1-(4-hydroxyphenyl)-7-(butyl)-1,7-dicarba-closododecaborane [Compound 6]”, in data set [3], the “fold higher IV clearance than OSU-ERβ-12” value was around 3 fold. Moreover, the Ki (as a rule, a dissociation constant, usually derived from enzyme kinetics or from competition with a known ligand) on ERβ [4] ([3H]estradiol competition, recombinant human receptor from Sf9 cells) came out at 4 nM; on hERα [6] it was 16.5 nM. At ERβ [4] (ratio of Ki hERα/hERβ), the “Binding Selectivity” value is reported as 4.1. Further, on hERα [5], the “(Uterotrophic ED50 Cmax)/hERα EC50” value was 0.2. The EC50 was found to be 23.1 nM on mouse ERα; 35 nM on ERβ [9] (read-out: hERβ EC50, nM (95% CI), transactivation, HEK-293); 2580 nM at hERα [11] (read-out: hERα EC50, nM (95% CI), HEK-293); 2600 nM at hERα [11] (read-out: hERα EC50, μM (95% CI), as listed in Tables 7A/7B); 8.6 nM on mouse ERβ (read-out: mERβ EC50, nM (95% CI), transactivation, HEK-293). Further, the “fold by which uterotrophic Cmax of OSU-ERβ-12 is higher than that of the analog” value in data set [7] (simulated at uterotrophic ED50 dose) is 176 fold. In [7] (setting [12]), the “Uterotrophic ED50 AUC0-24hr” value is 1.7 µM·h. Also, in data set [7] (setting [12]), the “Uterotrophic ED50 Cmax” value is 500 nM. In addition, the “(Uterotrophic ED50 Cmax)/mERα EC50” value at mERα was 21.6. In addition, in data set [8], the “F (%)” value worked out at 1.3%. Besides, the “Transactivation Selectivity (human)” value at ERβ [9] (ratio of EC50 hERα/hERβ) is given as 74. Further, in [10], the “Uterotrophic ED50, mg/kg (95% CI)” value is 24.6 mg/kg. For the same compound, the “Transactivation Selectivity (mouse)” value at mouse ERβ (ratio of EC50 mERα/mERβ) amounted to 2.7.
